The text below walks through data of paper PMC6979384, “Characterization of the plant homeodomain (PHD) reader family for their histone tail interactions” (Epigenetics & Chromatin, 2020).

Test [1] relates to CHD5 (PCC). Kind of test: PHD finger domain microarray. The test is classed as binding, human. The text has this: (§1) To define the histone binding preferences of the PHD finger proteome, we expressed and purified 123 annotated human PHD-containing domains as GST-tagged recombinant fusions from E. coli. The recombinant proteins consisted of either PHD fingers in isolation, or as tandem domains if a given PHD finger was located adjacent to another reader domain (e.g., one or more PHD fingers, Tudor, chromo and/or bromodomains) (Additional file 1: Table S1). These GST fusions were printed in duplicate on nitrocellulose-coated microarray slides and probed with biotinylated peptides that represented the N-termini of H3, H4, H2A or H2B (Fig. 1a and Additional file 2: Figure S1). As the majority of PHD readers thus far characterized are H3K4me0/3 readers, we included additional peptides (H3K4 as either mono-, di-, or trimethylated) to further determine any H3K4 methyl preference (Additional file 2: Figure S2 and Fig. 1b). As a control, we also probed these microarrays with an α-Tubulin peptide (a.a. 30–50) that would not be predicted to interact with PHD fingers (Additional file 2: Figure S1). […] We also cannot exclude the possibility that some PHD fingers might not be functionally active on the microarrays (perhaps due to misfolding or the lack of an important adjacent region).
(§2) The protein domain microarray was designed to include 123 GST-tagged PHD-domain containing recombinant proteins. Protein domain microarray development and probing was as previously. Briefly, recombinant proteins were synthesized and cloned into pGEX-4T-1 vector by Biomatik Corporation. These GST-PHD readers were subsequently expressed, purified, and spotted in duplicate onto nitrocellulose-coated glass slides (Oncyte Avid slides, Grace Bio-Labs) using a pin arrayer (Aushon 2470, Aushon). For probing, microarray slides were blocked with 3% milk, 3% bovine serum albumin, 0.1% Tween 20 in PBS. Biotinylated peptides were pre-labeled with streptavidin-Cy3 fluorophore (GE Healthcare) and incubated with the blocked array slides. Slides were then washed with PBST and allowed to air dry. Fluorescent interactions were visualized using a GenePix 4200A Microarray Scanner (Molecular Devices).

In test [2] the test system is PHRF1 (RP). Nature of the test: PHD finger domain microarray. The format is binding, human.
Excerpt: as §1, §2

The test system of test [3] is KDM5B (PHD3). Nature of the test: PHD finger domain microarray. The format is binding, human.
Excerpt: as §1, §2

For test [4], the system named is PHRF1 (RP). Kind of test: dCypher AlphaScreen Phase B (full peptide screen). Particulars: reader 15 nM, 100 nM peptide, 23 °C, n = 2. The format is binding, human. How it is done: (§3) X-axes are log(protein concentration (M)) at constant peptide concentration (100 nM); Y-axes are AlphaScreen counts, representing relative strength of binding (n = 2; error bars are S.D.). i Heat map represents relative binding to H3 N-terminal peptides (left) by PHD-containing GST-tagged proteins (top) using the dCypher AlphaScreen platform. Protein concentrations can be found in Additional file 5: Table S4. Binding strength is indicated by color gradient from green to yellow (stronger to weaker). […] Alpha counts (n = 2) were normalized individually for each protein to the highest signal for each respective assay. For full dCypher peptide screen data, see Additional file 4: Table S3
(§4) Once the optimal protein concentration ranges for each of the eight readers were determined, we conducted the full dCypher peptide screen (293 histone peptides) (Fig. 3i; Additional file 4: Table S3).
(§5) The dCypher peptide screen assay was performed as previously described. Briefly, 5 μL of GST-tagged reader domains (optimal protein concentration for library screening determined by initial binding curves to candidate peptides) were incubated with 5 μL of 400 nM (100 nM Final) biotinylated histone peptides (EpiCypher) for 30 min at 23 °C in 1× AlphaLISA Epigenetics buffer + epigenetics buffer supplement (PerkinElmer, AL1008) in a 384-well plate. A 10 μL mix of 5 µg/mL (2.5 μg/mL final) glutathione Acceptor beads (PerkinElmer, AL109M) and 10 μg/mL (5 μg/mL final) streptavidin Donor beads (PerkinElmer, 6760002) was prepared in 1× [Epigenetics buffer + supplement] and added to each well. Plates were incubated at 23 °C in subdued lighting for 60 min and AlphaLISA signal measured on a PerkinElmer 2104 EnVision (680 nm laser excitation, 570 nm emission filter ± 50 nm bandwidth).
(§6) Supplementary file 13072_2020_328_MOESM4_ESM.xlsx: Additional file 4: Table S3. dCypher Results. Excel Tab Peptide Phase A is a compiled set of binding data: chromatin reader titration vs. several peptide targets. Data is presented as raw Alpha counts in duplicates at each concentration tested. Excel Tab Peptide Phase B is a compiled set of binding data: chromatin reader at optimized concentrations vs. entire 293 peptide library. Data is presented as the average and standard deviation of duplicates. […] Key: red = strong binding; blue = weak/no binding.
A general note: Alpha assays give light when donor and acceptor beads are brought close together.

In test [5] the test system is MLL5. Nature of the test: dCypher AlphaScreen Phase B (full peptide screen). The format is binding, human. The conditions noted are these: reader 0.02 nM, 100 nM peptide, 23 °C, n = 2. How it is done:
as §3, §4, §5, §6

Test [6] relates to MLL5 PHD finger. Nature of the test: PHD finger domain microarray. The test is classed as binding, human.
Excerpt: as §1, §2

Test [7] concerns PHD finger of MLL5. Particulars: cited from earlier work. The text has this:
Our findings from domain and peptide microarray confirm the reported binding preferences of many PHD proteins such as those of the ING and PHF families. […] We surmise that the basis of this differenc ...

Test [8] concerns KDM5B (PHD3). The conditions noted are these: cited from earlier work. The text has this:
While findings between the domain microarrays and peptide microarrays largely agreed, there were some interesting differences. […] It should be noted that the comparison made here is between the H3K4me3 + K9ac + K18ac and the H3K4me0 + K9ac + K18ac peptides. Due to the limited binding, if any, ...

Test [9] has as its system KDM7A. Kind of test: dCypher AlphaScreen Phase B (full peptide screen). The test is classed as binding, human. Particulars: reader 0.15 nM, 100 nM peptide, 23 °C, n = 2. How it is done:
as §3, §4, §5, §6

Test [10] concerns H3K4me0 readers. Nature of the test: dCypher AlphaScreen Phase B (full peptide screen), H3K4me0 readers together. The test is classed as binding, human. The conditions noted are these: 100 nM peptide, 23 °C, n = 2. How it is done:
Fig. 3 dCypher histone peptide-binding assays define the PTM recognition preference of PHD proteins with high sensitivity. a–h Binding curves to determine optimal reader protein concentration for full peptide library screening on the dCypher® AlphaScreen® platform (see “Methods”). X-axes are log(protein concentration (M)) at constant peptide concentration (100 nM); Y-axes are AlphaScreen counts, representing relative strength of binding (n = 2; error bars are S.D.). i Heat map represents relative binding to H3 N-terminal peptides (left) by PHD-containing GST-tagged proteins (top) using the dCypher AlphaScreen platform. Protein concentrations can be found in Additional file 5: Table S4. […]
as §4
The dCypher peptide screen assay was performed as previously described. Briefly, 5 μL of GST-tagged reader domains (optimal protein concentration for library screening determined by initial binding curves to candidate peptides) were incubated with 5 μL of 400 nM (100 nM Final) biotinylated histone peptides (EpiCypher) for 30 min at 23 °C in 1× AlphaLISA Epigenetics buffer + epigenetics buffer supplement (PerkinElmer, AL1008) in a 384-well plate. […]

“Also recorded” adds a separate entry of the source. Where two headings read alike, the source gives them in different places.

Consider “H3 (1-20): unmodified H3 N-terminal peptide (1–20)”, for which the binding preference result is listed as “no preference” in [1], “no preference on the domain array” in test [2] (listed as H3K4me0), “readers of the unmodified H3 tail” in test [2] (listed as unmodified H3 tail) and “no preference” in test [3]. In addition, the binding result in [4] is given as “more limited interactions”.
Turning to H3K4me1: H3 1-20 [Peptide H3K4me1], the binding result in test [5] was “also identified interaction of these domains with the H3K4me1 peptide”.
H3K4me2: H3 1-20 [Peptide H3K4me2]: the binding preference entry in test [6] is on record as “strong preference”. In test [7], the reported binding result was “discrepancies in whether the PHD finger of MLL5 is a H3K4me3 or H3K4me2 reader”.
For the substance H3K4me3: H3 1-20 [Peptide H3K4me3], the reported binding result in [8] was “reported to bind H3K4me3”; in [7], “discrepancies in whether the PHD finger of MLL5 is a H3K4me3 or H3K4me2 reader”. The binding preference entry in test [1] was “no preference”; in test [6], “strong preference”; in test [2] it was “no preference”; in test [3] it was “consistent with their current classification as H3K4me3 binders; also recorded: no preference”. In addition, the binding result in test [9] is listed as “reader of H3K4me3”.
Take H3K9me3: H3 1-20 [Peptide H3K9me3]: in test [4], the binding entry is “more limited interactions”.
For the substance H3S10p: H3 1-20 [Peptide H3S10p], the “loss of binding on S10 phosphorylation” value in test [10] is on record as “this phenomenon is also observed”.
